Assay results published in article PMC9895061 (Signal Transduction and Targeted Therapy, 2023).
Like-named read-outs stand apart in the source and are kept apart here.

Columns and labels:
PRDX3 = biological target: T1, PRDX3 (Homo sapiens, UniProt P30048); assay: Trx-TrxR-NADPH coupling peroxiredoxin activity assay, PRDX3; type: biochemical
T1 sequence (P30048 62-256): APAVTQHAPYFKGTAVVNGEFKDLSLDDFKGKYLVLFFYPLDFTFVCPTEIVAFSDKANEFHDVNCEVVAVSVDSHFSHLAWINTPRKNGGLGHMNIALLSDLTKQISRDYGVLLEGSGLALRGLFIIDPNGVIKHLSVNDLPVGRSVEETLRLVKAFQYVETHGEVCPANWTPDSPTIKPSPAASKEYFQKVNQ

PRDX2 = biological target: T2, PRDX2 (Homo sapiens, UniProt P32119); assay: Trx-TrxR-NADPH coupling peroxiredoxin activity assay, PRDX2; type: biochemical
T2 sequence (P32119 1-198): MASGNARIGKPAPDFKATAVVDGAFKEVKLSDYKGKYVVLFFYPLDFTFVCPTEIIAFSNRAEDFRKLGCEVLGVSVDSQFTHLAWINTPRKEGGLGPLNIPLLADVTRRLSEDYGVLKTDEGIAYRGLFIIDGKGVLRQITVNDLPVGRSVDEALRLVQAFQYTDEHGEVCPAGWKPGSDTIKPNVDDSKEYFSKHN

gPRDX1 SW620 cells = assay: Proliferation IC50 in PRDX1 knockdown (gPRDX1) SW620 cells; type: cell-based; settings: Homo sapiens, SW-620, 24 h, read-out: IC50 against the proliferation of PRDX1 knockdown (gPRDX1) SW620 cells
Description: To generate PRDX1 knockdown cell lines, gRNA targeting […] was cloned into the vector pHBLV-U6-gRNA-EF1-CAS9-PURO from HanBio. The gRNA, psPAX2, and pMD2·G plasmids were mixed and co-transfected into HEK293T cells using Lipofectamine 2000 (Thermo Fisher Scientific). Medium with lentiviruses was collected and filtered through 0.45 μm filters at 48 h after transfection. Lentiviruses was used to infect the indicated cells with 8 μg/mL polybrene (Sigma-Aldrich) for 2 days. The infected cells were selected in medium containing 2 μg/mL puromycin (Sigma-Aldrich) for 3 days, and PRDX1 protein expression level were examined by western blot.
(§1) SW620 or HCT116 cells were seeded into 96-well plate overnight at 5000 cells per well or 4000 cells per well respectively. […] Cell numbers were assessed using the CCK-8 reagent at OD 450. The IC50 values were calculated by fitting the data points with the dose-response function in GraphPad.

PRDX5 = biological target: T3, PRDX5 (Homo sapiens, UniProt P30044); assay: Trx-TrxR-NADPH coupling peroxiredoxin activity assay, PRDX5; type: biochemical
T3 sequence (P30044 53-214): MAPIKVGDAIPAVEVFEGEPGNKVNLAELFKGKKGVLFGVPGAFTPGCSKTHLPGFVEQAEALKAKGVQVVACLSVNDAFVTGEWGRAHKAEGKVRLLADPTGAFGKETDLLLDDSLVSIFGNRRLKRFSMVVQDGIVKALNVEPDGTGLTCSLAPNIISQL

nude mice = assay: Acute toxicity test (percent survival within 2 weeks); type: in vivo; settings: for Survival number, female (n=4) / Survival number, male (n=4) / Survival rate, female (n=4) / Survival rate, male (n=4): within 2 weeks
Description: For acute toxicity test, Nude mice were randomly divided into five groups (four female mice and four male mice in each group). […] The percent survival within 2 weeks was recorded in Supplementary Table 2 and survival curve.

NCM460 cells = assay: Proliferation IC50 in NCM460; type: cell-based; settings: Homo sapiens, NCM460, 24 h, read-out: IC50 of proliferation, NCM460
PRDX4 = biological target: T4, PRDX4 (Homo sapiens, UniProt Q13162); assay: Trx-TrxR-NADPH coupling peroxiredoxin activity assay, PRDX4; type: biochemical; settings: for inhibition of the peroxidase activity of PRDX4 (in words): recombinant PRDX4
T4 sequence (Q13162 38-271): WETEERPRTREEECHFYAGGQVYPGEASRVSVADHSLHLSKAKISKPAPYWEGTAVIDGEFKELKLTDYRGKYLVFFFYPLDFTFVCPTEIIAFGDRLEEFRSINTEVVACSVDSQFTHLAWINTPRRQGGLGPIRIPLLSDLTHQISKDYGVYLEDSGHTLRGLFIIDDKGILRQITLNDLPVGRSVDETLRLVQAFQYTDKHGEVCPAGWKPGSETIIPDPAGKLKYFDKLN

[1] = Body weight of xenograft-bearing nude mice; settings: 2 mg/kg, day 12, average of gNS and gPRDX1 groups
SW620 cells [2] = assay: Cell viability by trypan blue staining, SW620; settings: for viability at 0.5 µM: Homo sapiens, SW-620, 24 h, read-out: cells viability, SW620
Description: Total cell number and viability were counted with trypan blue staining. To measure apoptosis, cells were harvested and followed by flow cytometric analysis using the Annexin V-FITC / PI apoptosis detection kit according to the manufacturer’s protocol. Cell apoptosis was analyzed by FlowJo software.
e, f Cell viability were measured by trypan-blue staining.

HCT116 cells = assay: CCK-8 proliferation assay, HCT116; type: cell-based; settings: Homo sapiens, HCT-116; 24 h treatment
Description: as §1

SW620 cells [3] = assay: CCK-8 proliferation assay, SW620; type: cell-based; settings: Homo sapiens, SW-620; 24 h treatment
Description: as §1

PRDX6 = biological target: T5, PRDX6 (Homo sapiens, UniProt P30041); assay: Trx-TrxR-NADPH coupling peroxiredoxin activity assay, PRDX6; type: biochemical
T5 sequence (P30041 1-224): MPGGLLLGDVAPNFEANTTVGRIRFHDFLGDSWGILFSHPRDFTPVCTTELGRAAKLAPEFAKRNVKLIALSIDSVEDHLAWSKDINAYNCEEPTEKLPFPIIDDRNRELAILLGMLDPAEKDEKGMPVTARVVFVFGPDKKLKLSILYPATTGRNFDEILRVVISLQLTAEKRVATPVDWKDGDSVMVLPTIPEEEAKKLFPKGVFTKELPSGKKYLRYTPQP
Description: The assay was conducted in 96-well plates as previously described.[47] […] Then, the mixture solution containing 0.3 µM yeast Trx, 0.15 µM yeast TrxR and 200 µM NADPH was added to assay wells. The reaction was initiated with 100 µM hydrogen peroxide (H2O2) and detected with Thermo Multiskan FC at 340 nm. For PRDX1-6, the work concentration is 0.6 µM, 1.5 µM, 1 µM, 3 µM, 0.5 µM, 10 µM respectively. The initial reaction’s slope of assay wells containing mixture solution and H2O2 without PRDXs and compounds (S100%) were considered as 100 % inhibition of PRDXs’ peroxidase activity. The initial reaction’s slope of assay wells containing mixture solution, H2O2 and PRDXs without compounds (S0%) were considered as 0% inhibition of PRDXs’ peroxidase activity. […] The inhibition rate (%) was calculated from the following equations: 100 – (Scompound − S100%)/(S0% − S100%) × 100. […] Data were analyzed using GraphPad (version 8.0).

SMILES: CC1=C(O)C(=O)C=C2C1=CC=C1[C@@]2(C)CC[C@@]2(C)[C@@H]3C[C@](C)(C(=O)O)CC[C@]3(C)CC[C@]12C [Celastrol, reference compound]
- IC50 (PRDX3): 6.67 ± 0.52 µM
- IC50 (PRDX2): 3.79 ± 0.26 µM
- IC50 (gPRDX1 SW620 cells): 0.494 ± 0.0108 µM
- IC50 (PRDX5): 2.3 ± 0.13 µM
- Survival number, female (n=4) (nude mice; 10 mg/kg intraperitoneally): 0
- Survival number, male (n=4) (nude mice; 10 mg/kg intraperitoneally): 1
- Survival rate, female (n=4) (nude mice; 10 mg/kg intraperitoneally): 0%
- Survival rate, male (n=4) (nude mice; 10 mg/kg intraperitoneally): 25%
- Survival number, female (n=4) (nude mice; 20 mg/kg intraperitoneally): 0
- Survival number, male (n=4) (nude mice; 20 mg/kg intraperitoneally): 0
- Survival rate, female (n=4) (nude mice; 20 mg/kg intraperitoneally): 0%
- Survival rate, male (n=4) (nude mice; 20 mg/kg intraperitoneally): 0%
- survival, all mice (male and female), in words (nude mice; 20 mg/kg, within two weeks): All the mice died
- IC50 (NCM460 cells): 2.66 µM
- IC50 (PRDX4): > 100 µM
- inhibition of the peroxidase activity of PRDX4 (in words) (PRDX4): no obvious inhibitory effect
- body weight loss as compared to DMSO control [1]: 11.2%
- viability at 0.5 µM (SW620 cells [2]): ~80%
- IC50 (HCT116 cells): 0.894 µM
- IC50 (SW620 cells [3]): 0.69 µM
- IC50 (PRDX6; recombinant PRDX6, 1.5 h incubation, mean ± SEM, triplicate, read-out: IC50 against the peroxidase activity of PRDX6): 27.3 ± 0.39 µM

SMILES: COC(=O)[C@H](C)NC(=O)N[C@]1(C)CC[C@]2(C)CC[C@]3(C)C4=CC=C5C(=CC(=O)C(O)=C5C)[C@]4(C)CC[C@@]3(C)[C@@H]2C1 [19-048, Methyl (((2R,4aS,6aS,12bR,14aS,14bR)-10-hydroxy-2,4a,6a,9,12b,14a-hexamethyl-11-oxo-1,2,3,4,4a,5,6,6a,11,12b,13,14,14a,14b-tetradecahydropicen-2-yl)carbamoyl)-L-alaninate]
- inhibition of the peroxidase activity of PRDX3 (in words) (PRDX3; recombinant PRDX3): no obvious inhibition
- IC50 (PRDX3; recombinant PRDX3, 1.5 h incubation, mean ± SEM, triplicate, read-out: IC50 against the peroxidase activity of PRDX3): > 100 µM
- inhibition of the peroxidase activity of PRDX2 (in words) (PRDX2; recombinant PRDX2): no obvious inhibition
- IC50 (PRDX2; recombinant PRDX2, 1.5 h incubation, mean ± SEM, triplicate, read-out: IC50 against the peroxidase activity of PRDX2): > 100 µM
- IC50 (gPRDX1 SW620 cells): 0.431 ± 0.00914 µM
- inhibition of the peroxidase activity of PRDX5 (in words) (PRDX5; recombinant PRDX5): no obvious inhibition
- IC50 (PRDX5; recombinant PRDX5, 1.5 h incubation, mean ± SEM, triplicate, read-out: IC50 against the peroxidase activity of PRDX5): > 100 µM
- Survival number, female (n=4) (nude mice; 10 mg/kg intraperitoneally): 4
- Survival number, male (n=4) (nude mice; 10 mg/kg intraperitoneally): 4
- Survival rate, female (n=4) (nude mice; 10 mg/kg intraperitoneally): 100%
- Survival rate, male (n=4) (nude mice; 10 mg/kg intraperitoneally): 100%
- survival, all mice (male and female) (nude mice; 10 mg/kg, within two weeks): 100%
- Survival number, female (n=4) (nude mice; 20 mg/kg intraperitoneally): 0
- Survival number, male (n=4) (nude mice; 20 mg/kg intraperitoneally): 4
- Survival rate, female (n=4) (nude mice; 20 mg/kg intraperitoneally): 0%
- Survival rate, male (n=4) (nude mice; 20 mg/kg intraperitoneally): 100%
- IC50 (NCM460 cells): 2.23 µM
- inhibition of the peroxidase activity of PRDX4 (in words) (PRDX4): no obvious inhibition
- IC50 (PRDX4; recombinant PRDX4, 1.5 h incubation, read-out: IC50 against the peroxidase activity of PRDX4): > 100 µM
- body weight loss as compared to DMSO control [1]: 7.3%
- cell viability at high concentrations, SW620 (in words) (SW620 cells [2]; 1, 2 μM, 24 h, trypan blue): significantly decreased cell viability
- viability at 0.5 µM (SW620 cells [2]): ~80%
- IC50 (HCT116 cells): 0.816 µM
- IC50 (SW620 cells [3]): 0.528 µM
- IC50 (PRDX6): > 100 µM
- inhibition of the peroxidase activity of PRDX6 (in words) (PRDX6; recombinant PRDX6): no obvious inhibition
